# Results from ChEMBL document CHEMBL4673221, “Furanoflavones pongapin and lanceolatin B blocks the cell cycle and induce senescence in CYP1A1-overexpressing breast cancer cells” (Bioorg Med Chem, 2018).
# Key:
# [1] = species on record: Homo sapiens; assay: Selectivity ratio IC50 for inhibition of human CYP1A2 expressed in sacchrosomes toIC50 for Inhibition of CYP1A1 expressed in sacchrosomes
# [2] = species on record: Homo sapiens; assay: Selectivity ratio IC50 for inhibition of human CYP1B1 expressed in sacchrosomes toIC50 for Inhibition of CYP1A1 expressed in sacchrosomes
smiles,measurement,setting,value
COc1c(-c2ccc3c(c2)OCO3)oc2c(ccc3occc32)c1=O [PONGAPIN],Ratio IC50,[1],13
same,Ratio IC50,[2],52
